Source: patent publication US8110655B2, “Method to promote hair growth and/or delay or treat hair loss by administering a TGF-β antagonist or inhibitor” (Auxagen, Inc., priority 2006, dated 2012)
Where no end group is shown, it is not given here. PEG = not defined here

Assays:
[1] = tested on: partial-thickness pig skin burn wounds; test: Partial-thickness porcine burn wound outcomes; assay type: in vivo
Description: Animals were sedated with Talazine® ([…] Zolazepam, Fort Dodge Lab, Fort Dodge, Iowa) 5 mg/kg IM. The pigs were then intubated endotracheally and maintained under a surgical plane of anesthesia with isoflurane 0.5-2.5% in room air. The flank and back hair was clipped with hair clippers and the skin was scrubbed with a povidine iodine solution. Standardized partial thickness burns were created on the animals' backs and flanks by applying a 2.5 cm by 2.5 cm, 150 gram aluminum bar preheated in hot water to 80° C. The heated bar was wiped dry just prior to application to prevent water droplets from creating a steam burn on the skin. The bar was then placed at a vertical position perpendicular to the skin's surface and applied for a period of 20 seconds with all pressure supplied by gravity. […] In order to simulate burn blister debridement and enhance the absorption of the topical agents, the necrotic epidermis was gently removed by rubbing the burn with dry gauze. Removal of the necrotic epidermis results in delayed reepithelialization, and increased scar formation^17. Twenty burns were inflicted on each of 2 pigs (evenly distributed between both side of the pigs), for a total of 40 burns. The agent used in the studies is PEG-β1^25 (SEQ ID NO: 8) This particular peptide was chosen after screening seven pentacosapeptides whose amino acids overlap and cover most of the human TGF-β1 molecule, the monomer of which has 112 amino acid residues. […] Furthermore, the chosen peptide was also shown to block the cellular responses to TGF-β1 such as DNA synthesis and transcriptional activation of PAI-1. […] TGF-β peptantagonist PEG-β1^25 in PBS was mixed with Sterile IntraSite gel from Smith and Nephew Medical, Ltd. (UK) at a ratio of 1:3 (v/v). The pigs were randomized to treatment with topical PEG-β1^25 peptantagonist (SEQ ID NO: 8) or its vehicle (carboxy methylcellulose, IntraSite Gel, Smith and Nephew, Largo, Fla.) immediately after injury and at days 3, 5, 7, 10, 14, 18, 21, and 25. A thin layer of the topical treatment was applied with a sterile metal spatula. Group randomization order was determined by drawing unlabeled forms from an opaque container. After applying the topical therapy, the burns were covered with dry non-adherent gauze ([…] Company, Mansfield, Mass.). The burned areas were then covered with a gauze bandage roll (Conform®), Kendall Healthcare Products Company, Mansfield, Mass.) and an adhesive elastic bandage (Elastoplast®, Beiersdorf-Jobst, Inc., Rutherford College, N.C.). The adhesive dressing was secured to the skin at a distance from the burns with skin staples. Animals were observed frequently for signs of pain or discomfort and treated with IM buprenorphine 0.01 mg/kg as needed. Dressing changes were performed with each application of the topical agents. At each dressing change all gauze dressings were removed and the wounds were observed and the study agent was reapplied. All burns were then re-covered with non-adherent gauze and elastic wrap as previously described. Full thickness 4-mm punch biopsies (Miltex Instrument Company Inc., Lake Success, N.Y.) were taken after 7, 10, and 14 days for blinded histopathological evaluation by a board-certified dermatopathologist masked to treatment assignment. The entire wound was excised at 28 days and submitted for histological evaluation. Digital photos were taken prior to biopsy to determine the presence of wound contraction defined as an hourglass like shape. Histopathological studies were done on formalin-fixed, alcohol-dehydrated, xylene-cleared, paraffin-embedded, hematoxylin and eosin stained 5 μm sections using conventional microscopy. The primary outcome was the percent of wounds healing with wound contraction. Secondary outcomes were percent reepithelialization, percent wound infection, and the percent of wounds with scars extending through the entire thickness of the dermis. […]

[2] = tested on: TGF-β receptors in mink lung epithelial cells; test: Inhibition of labeled TGF-β binding to TGF-β receptors in mink lung epithelial cells; settings: screen of seven pentacosapeptides
From the text: (§1) By “treating or preventing alopecia” is meant the ability to cure, reduce or prevent one or more clinical symptoms of alopecia, including, but not limited to, hair loss, cornification, scaling, uneven thickness, persistent itch, inflammation, and rapid epithelial cell turnover in the skin. Treating alopecia also includes the promotion of hair growth at the site of the hair loss. The methods of the invention also encompass promotion or stimulation of hair growth in general (e.g. to thicken naturally thin hair). […] It was also discovered that at least four consecutive amino acids comprising W(or R)XXD (wherein X is any amino acid) motif in the sequences, determines their potencies and that they block TGF-β-induced growth inhibition and TGF-β-induced expression of PAI-1 in mink lung epithelial cells and other cell types (U.S. Pat. No. 6,500,920 issued Dec. 31, 2002). As was previously disclosed by the inventors, such peptides are effective in inhibiting, ameliorating or reversing the effects of TGF-β in biological systems including but not limited to reducing scarring wounds, to prevent lung injury in adult respiratory distress syndrome (ARDS), and injuries of other tissues caused by pharmacological agents (e.g. bladder injury caused by cyclophosphamide). […]

[3] = tested on: mink lung epithelial cells; test: Block of TGF-β-induced growth inhibition / DNA synthesis response; assay type: cell-based
From the text: as §1

PAI-1 = test: Block of TGF-β-induced expression / transcriptional activation of PAI-1; assay type: cell-based, mink
From the text: as §1

[4] = day 28, of 20 burns, full thickness scars

Substance: PEG-β1^25: β1^25 (SEQ ID NO: 8) pegylated at the N-terminal alpha-amino group and at the epsilon-amino group ({PEG}-ANFSLGPSPYIWSLDTQYSK(PEG)VLALY; reading uncertain; listed as Homo Sapiens)
- Percent wound reepithelialization, day 7 ([1]; day 7, 20 burns): 14.2 (28.8) %
- Percent wound reepithelialization, day 10 ([1]; day 10, 20 burns): 46.3 (44.4) %
- Percent wound reepithelialization, day 14 ([1]; day 14, 20 burns): 91.9 (25.7) %
- % wounds completed reepithelialized, day 14 ([1]; day 14, of 20 burns): 90%
- No. wounds completed reepithelialized, day 14 ([1]; day 14, of 20 burns): 18
- % contracted wounds, day 28 ([1]; day 28, of 20 burns): 35%
- No. contracted wounds, day 28 ([1]; day 28, of 20 burns): 7
- % deep scars, day 28 [1, 4]: 10%
- No. deep scars, day 28 [1, 4]: 2
- hair growth in treated wounds ([1]; partial-thickness burn, topical gel): exhibited hair growth
- Mean Difference (95% CI) in percent wound reepithelialization, day 7 ([1]; versus control vehicle, day 7): 7.9 (−8.2-24.1)
- Mean Difference (95% CI) in percent wound reepithelialization, day 10 ([1]; versus control vehicle, day 10): 20.9 (−6.1-48.0)
- Mean Difference (95% CI) in percent wound reepithelialization, day 14 ([1]; versus control vehicle, day 14): 19.5 (−2.5-41.5)
- inhibition of binding of labeled TGF-β1 to its receptor [2]: completely inhibited
- block of cellular response to TGF-β1: DNA synthesis [3]: block
- block of cellular response to TGF-β1: transcriptional activation of PAI-1 (PAI-1): block
